These molecules were tested against rhCathepsin C/DPP1 (Homo sapiens (Human), UniProt P53634) (assay: Test for inhibition of DPP1 enzyme activity). Conditions: recombinant human cathepsin C/DPP1; substrate Gly-Arg-AMC.
Format: biochemical
Description: Recombinant human cathepsin, rhCathepsin C/DPP1, purchased from R&D systems
Gly-Arg-AMC (hydrOCHloride), purchased from Cayman chemical
• 1) Preparation and handling of compounds: Accurately weigh the compound and dissolve it in […] of DMSO to prepare a […] of the bulk, which is further diluted as required. • 2) Screening test: Dilute recombinant human cathepsin rhCathepsin C/DPP1 and recombinant human cathepsin rhCathepsin L with an activating buffer solution, and incubate at 37° C. for 60 min. Add 4 μL of test compound to the white well of the 384-well plate. Add 4 μL of the enzyme mixture after incubation to the white wells. Block the 384-well plate and allow to stand at room temperature for 30 min, and add 8 μL of 2-fold diluted Gly-Arg-AMC (hydrochloride). Block the 384-well plate and allow to stand at room temperature for 2 h. Prepare 4× stop solution and add 4 μL stop solution to white wells. Read fluorescence data on the fluorescence meter Victor Nivo35. • 3) Data analysis:
[…] using Prism Graphpad 8.0.

Chain of rhCathepsin C/DPP1 (P53634 25-134): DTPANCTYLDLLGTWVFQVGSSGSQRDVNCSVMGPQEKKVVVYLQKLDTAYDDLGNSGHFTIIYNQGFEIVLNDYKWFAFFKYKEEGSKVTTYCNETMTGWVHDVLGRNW
Chain of rhCathepsin C/DPP1 (P53634 231-394): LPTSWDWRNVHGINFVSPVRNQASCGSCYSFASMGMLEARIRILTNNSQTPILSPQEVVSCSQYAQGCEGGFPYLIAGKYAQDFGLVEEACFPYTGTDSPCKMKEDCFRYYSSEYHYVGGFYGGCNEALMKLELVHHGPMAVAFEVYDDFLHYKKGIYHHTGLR
Chain of rhCathepsin C/DPP1 (P53634 395-463): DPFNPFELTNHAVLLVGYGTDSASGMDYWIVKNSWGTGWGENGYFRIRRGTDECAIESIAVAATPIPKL

Row | SMILES | IC50
1 | N#C[C@H](Cc1ccc(-c2ccc3c(c2)C2(CCN(C4COC4)CC2)OC3)cc1)NC(=O)[C@@H]1CNCCCO1 [Compound D26] | 3.1 nM
2 | N#C[C@H](Cc1ccc(-c2ccc3c(c2)C2(CN(C4COC4)C2)OC3)cc1F)NC(=O)[C@@H]1CNCCCO1 [Compound D57] | 2.2 nM
3 | CN1CCC(=O)c2ccc(-c3ccc(C[C@@H](C#N)NC(=O)[C@@H]4CNCCCO4)c(F)c3)cc21 [Compound D118] | 1.6 nM
4 | CCN1CCC(=O)c2ccc(-c3ccc(C[C@@H](C#N)NC(=O)[C@@H]4CNCCCO4)c(F)c3)cc21 [Compound D120] | 2.3 nM
5 | N#C[C@H](Cc1ccc(-c2ccc3sc(=O)n(C4COC4)c3c2)cc1F)NC(=O)[C@@H]1CNCCCO1 [Compound D106] | 1.36 nM
6 | [2H]C([2H])([2H])[C@H]1OC(=O)c2ccc(-c3ccc(C[C@@H](C#N)NC(=O)[C@@H]4CNCCCO4)c(F)c3)cc21 [Compound D127] | 4.2 nM
7 | C[C@H]1OC(=O)c2ccc(-c3ccc(C[C@@H](C#N)NC(=O)[C@@H]4CNC[C@@H](F)CO4)c(F)c3)cc21 [Compound D123] | 1.4 nM
8 | CN1CC(n2c(=O)oc3ccc(-c4ccc(C[C@@H](C#N)NC(=O)[C@@H]5CNCCCO5)c(F)c4)cc32)C1 [Compound D67] | 0.18 nM

The next lines start with the values.

Row | IC50 | SMILES
9 | 0.72 nM | N#C[C@H](Cc1ccc(-c2ccc3c(c2)COC3=O)cc1F)NC(=O)[C@@H]1CNCC2(CC2)CO1 [Compound D78]
10 | 5.2 nM | N#C[C@H](Cc1ccc(-c2ccc3c(c2)COC3=O)cc1)NC(=O)[C@@H]1CNCCCO1 [Compound D44]
11 | 2.5 nM | N#C[C@H](Cc1ccc(-c2ccc3c(c2)COC3=O)cc1F)NC(=O)[C@@H]1CNCCCO1 [Compound D61]
12 | 3.6 nM | CN1CC2(C1)OCc1ccc(-c3ccc(C[C@@H](C#N)NC(=O)[C@@H]4CNCCCO4)cc3)cc12 [Compound D20]
13 | 2.5 nM | CC1OC(=O)c2ccc(-c3ccc(C[C@@H](C#N)NC(=O)[C@@H]4CNCCCO4)c(F)c3)cc21 (stereo partly drawn) [Compound D73]

The molecules below were run against DPP1 (Homo sapiens (Human), UniProt P53634) (assay: DPP1 activity inhibition test on U937 cells). Conditions: U-937, 5 nM compound, substrate h-Gly-phe-AFC.
Chain of DPP1 (P53634 25-463): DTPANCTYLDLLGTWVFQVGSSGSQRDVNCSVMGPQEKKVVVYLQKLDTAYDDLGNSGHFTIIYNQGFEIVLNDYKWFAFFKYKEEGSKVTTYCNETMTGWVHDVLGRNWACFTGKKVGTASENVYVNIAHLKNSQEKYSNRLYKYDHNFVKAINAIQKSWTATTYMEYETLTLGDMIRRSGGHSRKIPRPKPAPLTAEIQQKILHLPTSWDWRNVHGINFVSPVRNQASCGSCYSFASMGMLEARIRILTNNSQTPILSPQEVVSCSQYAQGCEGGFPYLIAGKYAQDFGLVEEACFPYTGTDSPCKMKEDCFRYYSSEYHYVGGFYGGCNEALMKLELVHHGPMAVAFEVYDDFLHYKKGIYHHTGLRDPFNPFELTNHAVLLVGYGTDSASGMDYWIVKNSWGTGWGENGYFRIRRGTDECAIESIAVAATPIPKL
Format: cell-based
Description: After incubation at 37° C. for 1 h, add h-Gly-phe-AFC (10 μL) to each well and start reaction.

Row | SMILES | inhibition at 0.005 µM
14 | N#C[C@H](Cc1ccc(-c2ccc3c(c2)C2(CCN(C4COC4)CC2)OC3)cc1)NC(=O)[C@@H]1CNCCCO1 [Compound D26] | 30 to 75%
15 | N#C[C@H](Cc1ccc(-c2ccc3c(c2)C2(CN(C4COC4)C2)OC3)cc1F)NC(=O)[C@@H]1CNCCCO1 [Compound D57] | 30 to 75%
16 | CN1CC(n2c(=O)oc3ccc(-c4ccc(C[C@@H](C#N)NC(=O)[C@@H]5CNCCCO5)c(F)c4)cc32)C1 [Compound D67] | 30 to 75%

Other lines, results leading:

Row | inhibition at 0.005 µM | SMILES
17 | 30 to 75% | N#C[C@H](Cc1ccc(-c2ccc3c(c2)COC3=O)cc1F)NC(=O)[C@@H]1CNCC2(CC2)CO1 [Compound D78]
18 | 30 to 75% | N#C[C@H](Cc1ccc(-c2ccc3c(c2)COC3=O)cc1)NC(=O)[C@@H]1CNCCCO1 [Compound D44]
19 | 30 to 75% | N#C[C@H](Cc1ccc(-c2ccc3c(c2)COC3=O)cc1F)NC(=O)[C@@H]1CNCCCO1 [Compound D61]
20 | 30 to 75% | CN1CC2(C1)OCc1ccc(-c3ccc(C[C@@H](C#N)NC(=O)[C@@H]4CNCCCO4)cc3)cc12 [Compound D20]
21 | 30 to 75% | CC1OC(=O)c2ccc(-c3ccc(C[C@@H](C#N)NC(=O)[C@@H]4CNCCCO4)c(F)c3)cc21 (stereo partly drawn) [Compound D73]

Same assay, conditions: U-937, 50 nM compound, substrate h-Gly-phe-AFC

Row | SMILES | inhibition at 0.05 µM
22 | N#C[C@H](Cc1ccc(-c2ccc3c(c2)C2(CCN(C4COC4)CC2)OC3)cc1)NC(=O)[C@@H]1CNCCCO1 [Compound D26] | 75 to 100%
23 | N#C[C@H](Cc1ccc(-c2ccc3c(c2)C2(CN(C4COC4)C2)OC3)cc1F)NC(=O)[C@@H]1CNCCCO1 [Compound D57] | 75 to 100%
24 | CN1CC(n2c(=O)oc3ccc(-c4ccc(C[C@@H](C#N)NC(=O)[C@@H]5CNCCCO5)c(F)c4)cc32)C1 [Compound D67] | 75 to 100%

Next, values leading:

Row | inhibition at 0.05 µM | SMILES
25 | 75 to 100% | N#C[C@H](Cc1ccc(-c2ccc3c(c2)COC3=O)cc1F)NC(=O)[C@@H]1CNCC2(CC2)CO1 [Compound D78]
26 | 75 to 100% | N#C[C@H](Cc1ccc(-c2ccc3c(c2)COC3=O)cc1)NC(=O)[C@@H]1CNCCCO1 [Compound D44]
27 | 75 to 100% | N#C[C@H](Cc1ccc(-c2ccc3c(c2)COC3=O)cc1F)NC(=O)[C@@H]1CNCCCO1 [Compound D61]
28 | 75 to 100% | CN1CC2(C1)OCc1ccc(-c3ccc(C[C@@H](C#N)NC(=O)[C@@H]4CNCCCO4)cc3)cc12 [Compound D20]
29 | 75 to 100% | CC1OC(=O)c2ccc(-c3ccc(C[C@@H](C#N)NC(=O)[C@@H]4CNCCCO4)c(F)c3)cc21 (stereo partly drawn) [Compound D73]

Same assay, conditions: intracellular enzyme activity, substrate h-Gly-phe-AFC

Row | SMILES | IC50
30 | N#C[C@H](Cc1ccc(-c2ccc3c(c2)C2(CCN(C4COC4)CC2)OC3)cc1)NC(=O)[C@@H]1CNCCCO1 [Compound D26] | 16 nM
31 | N#C[C@H](Cc1ccc(-c2ccc3c(c2)C2(CN(C4COC4)C2)OC3)cc1F)NC(=O)[C@@H]1CNCCCO1 [Compound D57] | 10 nM
32 | CN1CCC(=O)c2ccc(-c3ccc(C[C@@H](C#N)NC(=O)[C@@H]4CNCCCO4)c(F)c3)cc21 [Compound D118] | 2.1 nM
33 | CCN1CCC(=O)c2ccc(-c3ccc(C[C@@H](C#N)NC(=O)[C@@H]4CNCCCO4)c(F)c3)cc21 [Compound D120] | 3.42 nM
34 | N#C[C@H](Cc1ccc(-c2ccc3sc(=O)n(C4COC4)c3c2)cc1F)NC(=O)[C@@H]1CNCCCO1 [Compound D106] | 4.3 nM
35 | [2H]C([2H])([2H])[C@H]1OC(=O)c2ccc(-c3ccc(C[C@@H](C#N)NC(=O)[C@@H]4CNCCCO4)c(F)c3)cc21 [Compound D127] | 4.6 nM
36 | C[C@H]1OC(=O)c2ccc(-c3ccc(C[C@@H](C#N)NC(=O)[C@@H]4CNC[C@@H](F)CO4)c(F)c3)cc21 [Compound D123] | 15 nM
37 | CN1CC(n2c(=O)oc3ccc(-c4ccc(C[C@@H](C#N)NC(=O)[C@@H]5CNCCCO5)c(F)c4)cc32)C1 [Compound D67] | 32 nM

Further lines, results first:

Row | IC50 | SMILES
38 | 2.9 nM | N#C[C@H](Cc1ccc(-c2ccc3c(c2)COC3=O)cc1F)NC(=O)[C@@H]1CNCC2(CC2)CO1 [Compound D78]
39 | 14 nM | N#C[C@H](Cc1ccc(-c2ccc3c(c2)COC3=O)cc1)NC(=O)[C@@H]1CNCCCO1 [Compound D44]
40 | 5.3 nM | N#C[C@H](Cc1ccc(-c2ccc3c(c2)COC3=O)cc1F)NC(=O)[C@@H]1CNCCCO1 [Compound D61]
41 | 35 nM | CN1CC2(C1)OCc1ccc(-c3ccc(C[C@@H](C#N)NC(=O)[C@@H]4CNCCCO4)cc3)cc12 [Compound D20]
42 | 3.8 nM | CC1OC(=O)c2ccc(-c3ccc(C[C@@H](C#N)NC(=O)[C@@H]4CNCCCO4)c(F)c3)cc21 (stereo partly drawn) [Compound D73]

From patent US20250101011A1, “PEPTIDYL NITRILE COMPOUND AND USE THEREOF” (SHANGHAI YIDIAN PHARMACEUTICAL TECHNOLOGY DEVELOPMENT CO., …, priority 2022, published 2025)
